Reference: publication PMC5482218 (Archiv der Pharmazie, 2016)

Assays:
[1] = test system: L-type calcium channels (LTCC); assay: High-throughput fluorescence Ca2+ flux assay; conditions: for Dose-response profile / effect on K+-induced Ca2+ influx: PC12 cells, Fura-2/AM, 50 mM KCl; for IC50: read-out: IC50 for the inhibition of K+-induced Ca2+ influx, PC12 cells loaded with Fura-2/AM, 10 min preincubation, depolarization with 50 mM KCl
PC12 cells [2] = assay: LDH release cell viability assay, with and without 200 μM H2O2; assay type: cell-based, rat; conditions: for Attenuation of H2O2-induced LDH release: 200 μM H2O2 24 h, p<0.05; for LDH release by compound alone (inherent toxicity): absence of H2O2, 100 μM, PC12 cells
PC12 cells [3] = test system: PC12 cells

Q: How did the “Dose-response profile / effect on K+-induced Ca2+ influx” value (shortened to “Dose-response profile / effect”) [1] turn out when “3-Hydroxy-3,11-oxatricyclo[6.3.0.0^2,6]undecane [Compound 11]” was run?
A: potentiating effect

Q: How did the “Dose-response profile / effect” value [1] turn out when `O=C1C2C3CC4C2C(=O)C2C1C3C42` (stereo not drawn) [Compound 4, Pentacyclo[5.4.0.0^2,6.0^3,10.0^5,9]undecane-8,11-dione] was run?
A: no activity

Q: How did the “Attenuation of H2O2-induced LDH release” value (PC12 cells [2]; compound at 1, 10 and 100 μM) turn out when `c1ccc(CNC23OC4C5C6CC(C7C6C4C72)C53)cc1` (stereo not drawn) [Compound 7a, 8-benzylamino-8,11-oxapentacyclo[5.4.0.0^2,6.0^3,10.0^5,9]undecane] was run?
A: significant attenuation of LDH release

Q: And the “LDH release by compound alone (inherent toxicity)” value (PC12 cells [2])?
A: some LDH release

Q: What about the IC50 [1] of the same compound?
A: 86 µM

Q: What about the “Reduction of H2O2-induced toxicity (Trypan blue exclusion)” value (PC12 cells [3]; 200 μM H2O2, compound at 1, 10 and 100 μM, p<0.05) of the same compound?
A: significant reduction

Q: `OC12C3C4CC5C6C4C1C6C(C53)N2Cc1ccccc1` (stereo not drawn) [Compound 8a, N-Benzyl-3-hydroxy-4-azahexacyclo[5.4.1.0^2,6.0^3,10.0^5,9. 0^8,11]dodecane] was tested. Which IC50 [1] did it give?
A: 35 µM

Q: For `OC12C3C4CC5C6C4C1C6C(C53)N2CCc1ccccc1` (stereo not drawn) [Compound 8b, N-Phenylethyl-3-hydroxy-4-azahexacyclo[5.4.1.0^2,6.0^3,10 0^5,9.0^8,11]dodecane], which “Attenuation of H2O2-induced LDH release” value (PC12 cells [2]; compound at 1 and 10 μM) is on record?
A: significant attenuation of LDH release

Q: And the “LDH release by compound alone (inherent toxicity)” value (PC12 cells [2])?
A: some LDH release

Q: And the IC50 [1]?
A: 8 µM

Q: What about the “Protection in the cell viability assay (Trypan blue)” value (PC12 cells [3]; 200 μM H2O2, concentration not stated) of the same compound?
A: able to offer protection

Q: What about the “Change in cell viability by compound alone (Trypan blue exclusion)” value (PC12 cells [3]; absence of H2O2, 10 and 100 μM, versus untreated cells) of the same compound?
A: slight decrease in cell viability

Q: For `CCCCCCCN1C2C3C4CC5C6C4C2C6C1(O)C53` (stereo not drawn) [Compound 8c, N-Heptyl-3-hydroxy-4-azahexacyclo[5.4.1.0^2,6.0^3,10.0^5,9. 0^8,11]dodecane], which IC50 [1] is on record?
A: 7 µM

Q: `O=C1CCC2CC3CCC(=O)C3C12` (stereo not drawn) [Compound 10, Tricyclo[6.3.0.0^2,6]undecane-3,11-dione] was tested. Which “Dose-response profile / effect” value [1] did it give?
A: slight potentiating effect but no antagonistic activity

Q: With `COc1cccc(CN2C3CCC4CC5CCC2C5C43)c1` (stereo not drawn) [Compound 14e, N-(3-Methoxybenzyl)-3,11-azatricyclo[6.3.0.0^2,6]undecane] as the compound, how does the IC50 [1] read?
A: 11 µM

Q: How did the IC50 [1] turn out when `c1cc(CN2C3CCC4CC5CCC2C5C43)ccn1` (stereo not drawn) [Compound 14f, N-(Pyridin-4-ylmethyl)-3,11-azatricyclo[6.3.0.0^2,6]-undecane] was run?
A: 5 µM

Q: How did the IC50 [1] turn out when “N-Benzyl-3,11-azatricyclo[6.3.0.0^2,6]undecane [Compound 14a]” was run?
A: 74 µM

Q: “N-Cyclohexylmethyl-3,11-azatricyclo[6.3.0.0^2,6]undecane [Compound 14d]” was tested. Which IC50 [1] did it give?
A: 68 µM
